The text below walks through data of patent US5741781A, “Mercaptoalkanoyldipeptide compounds” (Adir et Compagnie, priority 1995, dated 1998).

For assay [1], the target named is T1, renal neutral endopeptidase (NEP) (Mus musculus, UniProt Q61391).
T1 construct: from tissue; host or cells: mouse kidney (in vivo, homogenised after sacrifice)
T1 sequence (Q61391 1-750): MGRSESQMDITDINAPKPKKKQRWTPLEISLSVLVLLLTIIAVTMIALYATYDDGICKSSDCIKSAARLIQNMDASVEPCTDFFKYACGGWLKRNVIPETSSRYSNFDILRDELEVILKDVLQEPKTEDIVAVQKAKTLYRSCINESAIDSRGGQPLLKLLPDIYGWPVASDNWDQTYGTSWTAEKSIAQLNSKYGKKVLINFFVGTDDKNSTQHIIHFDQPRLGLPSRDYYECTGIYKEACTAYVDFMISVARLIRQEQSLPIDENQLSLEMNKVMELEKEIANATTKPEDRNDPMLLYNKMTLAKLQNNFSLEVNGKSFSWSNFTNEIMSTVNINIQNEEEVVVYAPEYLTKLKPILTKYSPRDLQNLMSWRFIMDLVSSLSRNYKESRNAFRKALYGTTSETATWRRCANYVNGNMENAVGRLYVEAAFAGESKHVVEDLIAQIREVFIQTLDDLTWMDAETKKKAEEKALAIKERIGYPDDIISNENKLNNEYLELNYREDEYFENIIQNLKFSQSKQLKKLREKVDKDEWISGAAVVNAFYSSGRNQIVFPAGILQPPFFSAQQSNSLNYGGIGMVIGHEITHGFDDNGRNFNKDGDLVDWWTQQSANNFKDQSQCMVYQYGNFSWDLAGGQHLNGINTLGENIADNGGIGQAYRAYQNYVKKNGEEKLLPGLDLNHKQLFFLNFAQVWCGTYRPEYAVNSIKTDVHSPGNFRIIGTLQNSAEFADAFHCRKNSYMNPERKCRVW
Nature of the assay: Inhibition in vivo of renal NEP, competition with [3H]HACBOGIy. The settings on record: mice, p.o. single dose 2.6 × 10^-6 mol/kg (1.5 mg/kg). As to the method: (§1) The compounds are administrated per os to mice in a single dose. Inhibition of both enzymes is measured during a time period from 1 hour to 16 hours by competitive experiments with specific radiolabelled markers for each enzyme. After i.v. administration of a radiolabelled ACE inhibitor ([^3 H]trandolaprilate) or a radiolabelled NEP inhibitor ([^3 H]HACBOGIy), the animal is sacrificed and the lungs or the kidneys are removed. The organs are homogenized and the radioactivity associated to these homogenates is measured by liquid scintillation as described in the protocol by M. C. Fourni6-Zaluski et al. (J. Med. Chem., 37, (1994), 1070-1083).

The target of assay [2] is T2, pulmonary peptidyldipeptidase A (ACE) (Mus musculus, UniProt P09470).
T2 construct: from tissue; host or cells: mouse lung (in vivo, homogenised after sacrifice)
T2 sequence (P09470 35-1312): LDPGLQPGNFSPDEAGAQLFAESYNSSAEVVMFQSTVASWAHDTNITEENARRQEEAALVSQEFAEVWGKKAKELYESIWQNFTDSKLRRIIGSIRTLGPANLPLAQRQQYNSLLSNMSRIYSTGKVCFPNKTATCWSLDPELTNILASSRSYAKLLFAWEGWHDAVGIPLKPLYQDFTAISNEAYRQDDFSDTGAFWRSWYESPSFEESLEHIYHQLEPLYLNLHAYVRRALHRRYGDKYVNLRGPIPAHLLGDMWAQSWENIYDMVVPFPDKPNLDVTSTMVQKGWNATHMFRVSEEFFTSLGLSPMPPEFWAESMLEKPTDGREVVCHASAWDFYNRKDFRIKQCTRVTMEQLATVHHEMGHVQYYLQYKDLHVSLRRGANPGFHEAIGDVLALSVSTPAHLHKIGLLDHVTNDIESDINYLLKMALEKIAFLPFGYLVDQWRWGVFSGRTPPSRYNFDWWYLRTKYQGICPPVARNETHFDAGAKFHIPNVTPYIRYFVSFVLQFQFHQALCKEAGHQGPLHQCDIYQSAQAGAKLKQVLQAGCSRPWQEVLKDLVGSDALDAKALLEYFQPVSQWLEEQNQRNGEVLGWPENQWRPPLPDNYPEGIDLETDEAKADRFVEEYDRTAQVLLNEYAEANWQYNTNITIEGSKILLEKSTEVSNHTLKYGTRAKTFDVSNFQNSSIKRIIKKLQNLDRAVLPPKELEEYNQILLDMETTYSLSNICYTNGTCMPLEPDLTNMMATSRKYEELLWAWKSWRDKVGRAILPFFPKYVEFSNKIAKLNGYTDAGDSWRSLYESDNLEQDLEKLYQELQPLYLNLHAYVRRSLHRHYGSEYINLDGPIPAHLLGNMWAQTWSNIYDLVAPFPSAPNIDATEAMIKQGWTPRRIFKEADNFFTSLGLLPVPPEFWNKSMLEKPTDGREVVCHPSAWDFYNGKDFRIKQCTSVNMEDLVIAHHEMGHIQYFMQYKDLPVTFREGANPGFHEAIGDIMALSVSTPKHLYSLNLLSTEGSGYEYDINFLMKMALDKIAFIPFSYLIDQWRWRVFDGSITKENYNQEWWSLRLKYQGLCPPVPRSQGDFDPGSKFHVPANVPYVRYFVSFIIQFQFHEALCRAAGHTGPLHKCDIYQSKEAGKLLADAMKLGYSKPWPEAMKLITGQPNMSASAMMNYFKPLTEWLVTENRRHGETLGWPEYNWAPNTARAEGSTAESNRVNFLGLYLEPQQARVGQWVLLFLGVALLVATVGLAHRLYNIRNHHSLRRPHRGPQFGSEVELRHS
Put plainly: Inhibition in vivo of pulmonary ACE, competition with [3H]trandolaprilate. The settings on record: mice, p.o. single dose 2.6 × 10^-6 mol/kg (1.5 mg/kg). How it is done: as §1

Assay [3] has as its system spontaneously hypertensive male rat (SHR). Nature of the assay: Anti-hypertensive effect in the spontaneously hypertensive rat (SHR). It is filed as in vivo. How it is done: The anti-hypertensive effect of the compounds of the invention is determined in vivo in the rat affected by a hypertension induced by the administration of DOCA salt (deoxycorticosterone acetate) and in the spontaneously hypertensive male rat (SHR), in accordance with the protocol described by Trapani et al. (J. Cardiovasc. Pharmacol., 14, (1989), 419-424). In that test the compounds of the invention are shown to be powerful anti-hypertensives and to be non-toxic.

The conditions of assay [4]: cited from earlier work.
For assay [5], the target named is neutral endopeptidase called "encephalinase" (Homo sapiens, UniProt P08473). The note with it: Nature, 228, (1980), 286-288; cited from earlier work.
Assay [6] deals with neutral endopeptidase (NEP) (Homo sapiens, UniProt P08473). Nature of the assay: Inhibitory effect in vitro on neutral endopeptidase, [3H]-D-Ala2-Leu-encephalin as substrate. In kind it is biochemical. The note with it: comment on Table I.
Chain of neutral endopeptidase (NEP) (P08473 whole entry, species assumed): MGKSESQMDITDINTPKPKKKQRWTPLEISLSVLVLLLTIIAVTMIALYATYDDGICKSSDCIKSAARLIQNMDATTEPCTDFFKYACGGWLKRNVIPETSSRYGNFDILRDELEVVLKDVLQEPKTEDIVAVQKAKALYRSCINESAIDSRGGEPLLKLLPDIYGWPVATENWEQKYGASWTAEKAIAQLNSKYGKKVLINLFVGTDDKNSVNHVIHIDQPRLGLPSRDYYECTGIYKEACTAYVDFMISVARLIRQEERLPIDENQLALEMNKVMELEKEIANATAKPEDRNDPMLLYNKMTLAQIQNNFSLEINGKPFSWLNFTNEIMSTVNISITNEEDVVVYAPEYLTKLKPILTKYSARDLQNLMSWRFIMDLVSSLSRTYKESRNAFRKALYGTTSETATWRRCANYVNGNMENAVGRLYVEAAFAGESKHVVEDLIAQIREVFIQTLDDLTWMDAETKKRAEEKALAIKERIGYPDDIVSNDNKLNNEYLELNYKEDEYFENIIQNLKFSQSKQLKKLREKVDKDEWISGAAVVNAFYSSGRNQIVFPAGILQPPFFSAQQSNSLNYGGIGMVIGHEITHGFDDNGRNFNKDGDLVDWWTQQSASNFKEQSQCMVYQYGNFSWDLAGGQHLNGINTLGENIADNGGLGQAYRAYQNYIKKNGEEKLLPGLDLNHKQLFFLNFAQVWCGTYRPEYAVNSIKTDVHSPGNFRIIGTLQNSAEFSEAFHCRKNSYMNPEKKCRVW

Chain of neutral endopeptidase called "encephalinase" (P08473 whole entry): as the sequence (P08473 whole entry, species assumed) above

Consider `O=C(NCC(=O)N1[C@@H](c2cccc(O)c2)CC[C@H]1C(=O)O)[C@@H](S)Cc1ccc(O)cc1` [Example 47, N-[N-(5R)-[(2S)-2-mercapto-3-(para-hydroxyphenyl)propanoyl]glycyl]5-(meta-hydroxyphenyl)-L-proline], for which the “% inhibition renal NEP” value is given as 75 ± 3% in assay [1] (1 h after administration); 70 ± 5% in assay [1] (2 h after administration); 74 ± 4% in assay [1] (4 h after administration); 60 ± 10% in assay [1] (8 h after administration); 48 ± 4% in assay [1] (16 h after administration). Besides, the “% inhibition pulmonary ACE” value in assay [2] (1 h after administration) stood at 90 ± 1%; in assay [2] (2 h after administration), 86 ± 3%; in assay [2] (4 h after administration), 87 ± 3%; in assay [2] (8 h after administration), 73 ± 3%; in assay [2] (16 h after administration) it was 20 ± 8%. Moreover, the “Systolic blood pressure (mm Hg) Treated animals” value in assay [3] (p.o. 25 mg/kg/day Day 1 to Day 6, n = 10, Day 0) worked out at 210 ± 5 mm Hg; in assay [3] (p.o. 25 mg/kg/day Day 1 to Day 6, n = 10, Day 1), 212 ± 3 mm Hg; in assay [3] (p.o. 25 mg/kg/day Day 1 to Day 6, n = 10, Day 2), 211 ± 1 mm Hg; in assay [3] (p.o. 25 mg/kg/day Day 1 to Day 6, n = 10, Day 3), 210 ± 2 mm Hg; in assay [3] (p.o. 25 mg/kg/day Day 1 to Day 6, n = 10, Day 4), 205 ± 2 mm Hg; in assay [3] (p.o. 25 mg/kg/day Day 1 to Day 6, n = 10, Day 5) it was 205 ± 1 mm Hg. Moreover, the “Systolic blood pressure (mm Hg) Treated animals” value in assay [3] (p.o. 25 mg/kg/day Day 1 to Day 6, n = 10, Day 6) worked out at 213 ± 2 mm Hg; in assay [3] (p.o. 25 mg/kg/day Day 1 to Day 6, n = 10, Day 7) it was 209 ± 4 mm Hg; in assay [3] (p.o. 25 mg/kg/day Day 1 to Day 6, n = 10, Day 8), 212 ± 2 mm Hg; in assay [3] (p.o. 25 mg/kg/day Day 1 to Day 6, n = 10, Day 9), 208 ± 2 mm Hg; in assay [3] (p.o. 25 mg/kg/day Day 1 to Day 6, n = 10, Day 10), 214 ± 1 mm Hg.
Turning to `O=C(O)CNC(=O)C(CS)Cc1ccccc1` (stereo not drawn) [thiorphan, N-(2-mercaptomethyl-3-phenyl-1-oxopropyl)glycine], in assay [4], the “effect in clinical trials” value is “causes natriuresis and diuresis without any significant hypotensive effect and without decreasing cardiac overload”. The “inhibitory property, concentration” value in assay [5] is “nanomolar concentration”. For the same compound, the “activity on NEP versus ACE in words” value in assay [6] is reported as “exhibits an activity on neutral endopeptidase (NEP) only”.
